# Measurements reported in patent US5885968A, “Triantennary cluster glycosides, their preparation and use” (Rijksuniversiteit te Leiden, priority 1992, dated 1999).
# Where two headings read alike, the source gives them in different places.
# Experiments:
# rats [1] = experiment: In vivo fate of lipoprotein (a) charged with glycolipid in rats; design: species or system rat; conditions: rats
# Source text: The so prepared TG(20 Å)-chol (formula 20): [drawing 24] can also be used to direct apo(a) to the hepatic parenchymal cell. High levels of lp(a) are correlated with the occurence of coronary and vascular diseases. To date, an adequate clinical therapy to alleviate the pathogenesis is not available. To investigate whether TG(20 Å)C can be used to stimulate the hepatic uptake and processing of lp(a) this, isolated lp(a) was charged with TG(20 Å)-chol according to a procedure that is known per se and the in vivo behaviour of the particle was studied. Lp(a) (50 μg) in PBS was incubated at 20° C. for 30 min with 0, 5, 15 and 50 μg TG(20 Å) (-chol). This charge led to a changed behaviour of the apo(a) after intravenous injection into rats. This is illustrated in FIG. 8. […] On account of the high […] of TG(20 Å)-chol, very rapidly an exchange of this compound occurs between lp(a) and other lipoproteins and lipid compartments. This then leads to a stabilization of the lp(a) level in the bloodstream after a few minutes.
# ^125 I-Lp(a) (50 μg) was mixed with 50 μg of TG(20 Å)C or TG(4 Å)C in 500 μl PBS. After 30 min at room temperature, the mixtures were injected into rats at a dose of 50 μg of apolipoprotein/kg body weight. Ten minutes after injection, parenchymal, endothelial and Kupffer cells were isolated from the liver and counted for radioactivity. Values are expressed as 10-3.% of the injected dose per mg of cellular protein and are means of 3 experiments ± s.e.m.
# [2] = biological target: T1, asialoglycoprotein receptor (Rattus norvegicus, UniProt P02706+P08290); experiment: Inhibition of binding of radiolabeled asialoorosomucoid to rat liver parenchymal cells; conditions: for Ki: rat liver parenchymal cells, labeled asialoorosomucoid
# T1 construct: parenchymal cells isolated from rat liver; endogenous in cells; host or cells: primary parenchymal cells (hepatocytes) isolated from rat liver
# T1 sequence (P02706 1-284): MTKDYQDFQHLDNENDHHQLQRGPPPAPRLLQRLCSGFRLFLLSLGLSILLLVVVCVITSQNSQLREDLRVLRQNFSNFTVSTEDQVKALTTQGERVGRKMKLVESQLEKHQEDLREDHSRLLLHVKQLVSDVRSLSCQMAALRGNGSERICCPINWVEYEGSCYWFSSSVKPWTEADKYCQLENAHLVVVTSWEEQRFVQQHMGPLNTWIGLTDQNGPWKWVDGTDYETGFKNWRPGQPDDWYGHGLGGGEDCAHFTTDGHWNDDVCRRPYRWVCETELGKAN
# T1 sequence (P08290 1-301): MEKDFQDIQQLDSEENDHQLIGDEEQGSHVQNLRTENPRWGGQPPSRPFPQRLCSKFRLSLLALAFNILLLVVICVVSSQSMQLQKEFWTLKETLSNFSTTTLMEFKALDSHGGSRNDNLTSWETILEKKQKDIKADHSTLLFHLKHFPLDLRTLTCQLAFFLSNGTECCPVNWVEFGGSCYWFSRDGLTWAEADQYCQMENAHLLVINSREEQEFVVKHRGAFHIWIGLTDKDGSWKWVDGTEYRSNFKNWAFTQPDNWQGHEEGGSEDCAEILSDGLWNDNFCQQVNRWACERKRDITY
# Source text: The affinity of cluster glycosides can be verified by means of binding studies. In them, it is considered to what extent the compounds are capable of inhibiting the binding of the radioisotopically labeled asioloorosomucoid to parenchymal cells isolated from rat liver according to a previously described procedure (ref 17). The sugar concentration at which inhibition arises is a measure of the affinity.
# [3] = biological target: T2, Fuc/Gal receptor on the hepatic Kupffer cell (Rattus norvegicus, UniProt P10716); experiment: Inhibition of 125I-Lac-LDL binding to Kupffer cells; conditions: 4° C., 2 h
# T2 construct: Kupffer cells in DMEM medium, supplemented with 2% BSA and 2 mM CaCl2; endogenous in cells; host or cells: primary Kupffer cells of liver
# T2 sequence (P10716 1-550): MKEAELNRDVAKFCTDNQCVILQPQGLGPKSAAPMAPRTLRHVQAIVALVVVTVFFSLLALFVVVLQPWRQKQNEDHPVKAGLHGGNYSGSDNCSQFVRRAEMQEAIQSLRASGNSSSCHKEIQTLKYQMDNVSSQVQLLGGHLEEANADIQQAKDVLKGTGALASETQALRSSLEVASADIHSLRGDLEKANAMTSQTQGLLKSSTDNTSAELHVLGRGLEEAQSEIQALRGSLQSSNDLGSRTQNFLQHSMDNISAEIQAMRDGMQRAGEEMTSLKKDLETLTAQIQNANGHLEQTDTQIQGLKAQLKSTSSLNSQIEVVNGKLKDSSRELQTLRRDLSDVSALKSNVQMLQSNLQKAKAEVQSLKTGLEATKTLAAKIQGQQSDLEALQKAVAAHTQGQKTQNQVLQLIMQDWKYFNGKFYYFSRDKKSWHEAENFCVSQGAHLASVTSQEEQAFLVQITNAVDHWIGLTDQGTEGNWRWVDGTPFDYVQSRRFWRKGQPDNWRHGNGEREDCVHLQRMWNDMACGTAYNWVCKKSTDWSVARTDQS
# Description: An idea of the specificity of cluster glycosides for the asialoglycoprotein receptor on the hepatic parenchymal cell can be obtained by comparing the affinity for this receptor with the affinity for the likewise galactose recognizing Fuc/Gal receptor on the hepatic Kupffer cell. […] To that end, Kupffer cells in DMEM medium, supplemented with 2% BSA and 2 mM CaCl2, are incubated at 4° C. for 2 h with 3 μg/ml ^125 I-Lac-LDL in the absence or presence of the compound, in a concentration range of 1 nM to 300 μM. After the incubation the binding of ^125 I-Lac-LDL to the Kupffer cells is determined in a manner identical to that for ^125 I-ASOR binding to liver parenchymal cells.
# [4] = cited from earlier work
# rats [5] = experiment: Serum cholesterol lowering after intravenous injection in rats; format: in vivo, rat; conditions: injection into vena penis, 0.056-0.56 mg, FIG. 3
# Description: This was verified as follows. Male rats (250-300 g) were anesthetized by means of ether, whereafter 500 gl PBS, having dissolved therein 0.56 mg, 0.18 mg, 0.056 mg or 0 mg TG(20 Å)-chol (formula 20) or 0.56 mg tris-glu-chol (formula 21): [drawing 19] was injected into the vena penis. At the times indicated in FIG. 3, blood samples of 300 μl were taken by means of orbital puncture. The blood samples were centrifuged (5 min; 1500 g) and the serum was used for a cholesterol assay by means of the CHOD-PAP kit of Boehringer Mannheim. 24 Hours after injection the rat was bled. The blood was centrifuged whereafter the serum was pipeted. Then the serum was subjected to gradient density ultracentrifugation and the various lipoprotein fractions were isolated: HDL (1.21<d<1.05), LDL (1.050<d<1.019), IDL (1.019<d<1.006) and VLDL (d<1.006). Finally, the total cholesterol concentrations of these lipoprotein fractions were assayed by means of the CHOD-PAP kit.
# [6] = 125I-Lp(a) 50 μg + 50 μg glycolipid, 10 min after injection, mean ± s.e.m., 3 experiments
# [7] = read-out: Asialoglycoprotein receptor Ki
# [8] = read-out: Asialoglycoprotein receptor pKi (± S.E.) (converted)
# [9] = read-out: Fuc-Gal receptor pKi (converted)
Structure (SMILES),"Ki [2, 7] [µM]","Ki [2, 8] [µM]",Ki ([3]; read-out: Fuc-Gal receptor Ki) [µM],"Ki [3, 9] [µM]",further results
"CC(C)CCC[C@@H](C)[C@H]1CC[C@H]2[C@@H]3CC=C4C[C@@H](OC(=O)CCC(=O)NCC(=O)NC(CO[C@@H]5O[C@H](CO)[C@H](O)[C@H](O)[C@H]5O)(CO[C@@H]5O[C@H](CO)[C@H](O)[C@H](O)[C@H]5O)CO[C@@H]5O[C@H](CO)[C@H](O)[C@H](O)[C@H]5O)CC[C@]4(C)[C@H]3CC[C@]12C [TG(4 Å)C, reference compound]",–,–,–,–,"Contribution to hepatic uptake of Lp(a), EC (endothelial cells) (rats [1]; [6]): 10.4 ± 3%; Contribution to hepatic uptake of Lp(a), KC (Kupffer cells) (rats [1]; [6]): 80.3 ± 3%; Liver cell type location of charged lp(a) (in words) (rats [1]): mainly located in the Kupffer cell"
COC(=O)CCCCC(=O)NCC(=O)NC(COCOCCO[C@@H]1O[C@H](CO)[C@H](O)[C@H](O)[C@H]1O)(COCOCCO[C@@H]1O[C@H](CO)[C@H](O)[C@H](O)[C@H]1O)COCOCCO[C@@H]1O[C@H](CO)[C@H](O)[C@H](O)[C@H]1O [Compound 15b],19,19.1,> 100,> 100,–
COC(=O)CCCCC(=O)NCC(=O)NC(COCOCCOCCO[C@@H]1O[C@H](CO)[C@H](O)[C@H](O)[C@H]1O)(COCOCCOCCO[C@@H]1O[C@H](CO)[C@H](O)[C@H](O)[C@H]1O)COCOCCOCCO[C@@H]1O[C@H](CO)[C@H](O)[C@H](O)[C@H]1O [Compound 15d],11,11.2,> 100,> 100,–
CC(C)CCC[C@@H](C)[C@H]1CC[C@H]2[C@@H]3CC=C4C[C@@H](OC(=O)CCC(=O)NCC(=O)NC(CO[C@@H]5O[C@H](CO)[C@H](O)[C@H](O)[C@H]5O)(CO[C@@H]5O[C@H](CO)[C@H](O)[C@H](O)[C@H]5O)CO[C@@H]5O[C@H](CO)[C@H](O)[C@H](O)[C@H]5O)CC[C@]4(C)[C@H]3CC[C@]12C [tris-gal-chol],–,–,–,–,Removal of cholesterol from the bloodstream and liver uptake [4]: capable of irreversibly removing cholesterol from the bloodstream and inducing cholesterol uptake by the liver; Potency as hypolipidemic agent ([4]; high doses necessary): low; Route of LDL removal after injection ([4]; in vivo): via the Fuc/Gal receptors on hepatic Kupffer cells
"CC(C)CCC[C@@H](C)[C@H]1CC[C@H]2[C@@H]3CC=C4C[C@@H](OC(=O)CCC(=O)NCC(=O)NC(CO[C@@H]5O[C@H](CO)[C@@H](O)[C@H](O)[C@H]5O)(CO[C@@H]5O[C@H](CO)[C@@H](O)[C@H](O)[C@H]5O)CO[C@@H]5O[C@H](CO)[C@@H](O)[C@H](O)[C@H]5O)CC[C@]4(C)[C@H]3CC[C@]12C [tris-glu-chol, reference compound]",–,–,–,–,Total serum cholesterol level (rats [5]): does not lead to a change in the cholesterol level
COC(=O)CCCCC(=O)NCC(=O)NC(COCOCCOCCOCCOCCO[C@@H]1O[C@H](CO)[C@H](O)[C@H](O)[C@H]1O)(COCOCCOCCOCCOCCO[C@@H]1O[C@H](CO)[C@H](O)[C@H](O)[C@H]1O)COCOCCOCCOCCOCCO[C@@H]1O[C@H](CO)[C@H](O)[C@H](O)[C@H]1O [Compound 15e],0.2,0.209,> 100,> 100,–
COC(=O)CCCCC(=O)NCC(=O)NC(CO[C@@H]1O[C@H](CO)[C@H](O)[C@H](O)[C@H]1O)(CO[C@@H]1O[C@H](CO)[C@H](O)[C@H](O)[C@H]1O)CO[C@@H]1O[C@H](CO)[C@H](O)[C@H](O)[C@H]1O [Compound 15a],390,389,> 30,> 31.6,–
COC(=O)CCCCC(=O)NCC(=O)NC(COCOCCCO[C@@H]1O[C@H](CO)[C@H](O)[C@H](O)[C@H]1O)(COCOCCCO[C@@H]1O[C@H](CO)[C@H](O)[C@H](O)[C@H]1O)COCOCCCO[C@@H]1O[C@H](CO)[C@H](O)[C@H](O)[C@H]1O [Compound 15c],1.2,1.23,> 100,> 100,Relative affinity for the ASGPr (in words) ([2]; from Table 2): slightly higher affinity than TG(13 Å)
